Consider 8 compounds from ChEMBL document CHEMBL5126579, “Design and synthesis of efficient fluororethylene-peptidomimetic inhibitors of dipeptidyl peptidase III (DPP3)” (Bioorg Med Chem, 2022).

As a reminder, the IC50 is the concentration that gives 50% inhibition.

Test [1] concerns the target T1, Dipeptidyl peptidase 3 (Homo sapiens, UniProt Q9NY33).
T1 sequence (Q9NY33 whole entry): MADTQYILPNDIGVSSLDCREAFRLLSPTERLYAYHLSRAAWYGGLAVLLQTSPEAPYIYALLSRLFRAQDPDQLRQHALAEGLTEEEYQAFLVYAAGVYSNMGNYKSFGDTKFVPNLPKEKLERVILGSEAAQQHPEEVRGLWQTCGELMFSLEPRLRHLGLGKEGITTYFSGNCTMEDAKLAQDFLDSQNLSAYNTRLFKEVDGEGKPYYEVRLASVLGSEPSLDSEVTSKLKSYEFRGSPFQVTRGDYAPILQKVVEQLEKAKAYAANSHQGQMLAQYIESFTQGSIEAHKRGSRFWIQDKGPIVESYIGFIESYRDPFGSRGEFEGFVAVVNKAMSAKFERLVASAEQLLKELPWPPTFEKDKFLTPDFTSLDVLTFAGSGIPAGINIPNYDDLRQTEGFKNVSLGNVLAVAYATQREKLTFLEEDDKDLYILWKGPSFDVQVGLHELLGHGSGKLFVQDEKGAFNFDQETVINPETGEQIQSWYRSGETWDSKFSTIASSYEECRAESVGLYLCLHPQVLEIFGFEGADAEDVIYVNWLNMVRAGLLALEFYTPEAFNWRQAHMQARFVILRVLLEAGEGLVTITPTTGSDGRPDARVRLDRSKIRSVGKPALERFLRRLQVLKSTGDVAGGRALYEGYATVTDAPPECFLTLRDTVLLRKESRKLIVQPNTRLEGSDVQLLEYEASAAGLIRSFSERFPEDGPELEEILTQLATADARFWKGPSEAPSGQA
As to the kind of experiment: Inhibition of human DPP3 using Arg-Arg-2-naphthylamide as substrate assessed as reduction in release of 2-naphthylamine preincubated for 10 mins followed by substrate addition and measured for 30 mins by fluorescence based analysis.

The target of test [2] is T1, Dipeptidyl peptidase 3. As to the kind of experiment: Inhibition of DPP3 (unknown origin).
Test [3] has as its target T1, Dipeptidyl peptidase 3. As to the kind of experiment: Competitive inhibition of DPP3 (unknown origin) using Arg-Arg-2-naphthylamide as substrate.

`CC(C)[C@H](N)C(=O)N[C@H](/C(F)=C/[C@@H](Cc1ccccc1)C(=O)N1CCCC[C@H]1C(=O)N[C@@H](Cc1c[nH]c2ccccc12)C(=O)O)C(C)C`: the half-maximal inhibitory concentration (IC50) in test [1] stood at 7.7 µM.
In the case of `CC(C)[C@H](NC(=O)[C@@H](N)C(C)(C)C)/C(F)=C/[C@@H](Cc1ccccc1)C(=O)N1CCC[C@H]1C(=O)N[C@@H](Cc1c[nH]c2ccccc12)C(=O)O`, in test [1], the IC50 was 22.5 µM.
On to H-VVFPW-OH, for which the 50% inhibitory concentration (IC50) in test [2] came out at 0.13 µM.
In test [3], `CC1C(=O)c2cc(O)c3c(c2C(O)C1O)C(=O)c1cccc(O)c1-3` (stereo not drawn) came in with an IC50 of 74 µM.
In turn, `Cc1cc(=O)c2c(cc(O)c3c4c(O)cccc4c(=O)c32)c1=O` came in with a half-inhibitory concentration (IC50) in test [3] of 1.44 µM.
As to `CC(C)[C@H](NC(=O)[C@@H](N)C(C)(C)C)/C(F)=C/[C@@H](Cc1ccccc1)C(=O)N1CCCC[C@H]1C(=O)N[C@@H](Cc1c[nH]c2ccccc12)C(=O)O`, in test [1], the IC50 was found to be 21 µM.
On the same count and under the same terms, then `CC(C)[C@H](N)C(=O)N[C@H](/C(F)=N/[C@@H](Cc1ccccc1)C(=O)N1CCC[C@H]1C(=O)N[C@@H](Cc1c[nH]c2ccccc12)C(=O)O)C(C)C`, with 4.6 µM.
Compound `CC(C)[C@H](N)C(=O)N[C@@H](C(C)C)[C@H](O)N[C@@H](Cc1ccccc1)C(=O)N1CCC[C@H]1C(=O)N[C@@H](Cc1c[nH]c2ccccc12)C(=O)O` yielded a half-inhibitory concentration (IC50) in test [2] of 8.5 µM.
